Data from patent US7977326B2, “Supportive treatment of liver disease” (priority 2004, dated 2011).
Where two headings read alike, the source gives them in different places.

Experiments:
Hepatic liver microsomes = settings: for Fluorescence Activity: 1 mM AAPH, n=6
Experimental: Hepatic liver microsomes were obtained from 4 healthy piglets as described previously. Microsomes were stored at −80° C. until required for study. Concentration of microsomes was 1 mg/ml. Diltiazem concentrations were 50 and 500 μM, Thiamine concentrations tested included 10, 50, and 100 μM. Free radical generator AAPH was 1 mM. The study detected hepatic lipid peroxidation products by analyzing the fluorescence activity of the dye DCFH by a plate reader as described in our previous report.
DCF-DA was treated with 2M NaOH and MeOH for 2 hours and after which time it was neutralized with HCl to yield the intracellular form of DCFH as described by the manufacturer. Hepatic microsomes were diluted to 1 mg/ml using Phosphate Buffered Saline (PBS). Microsomes were incubated with various concentrations of diltiazem, thiamine or in combination at 37° C. for 1 hour. Control microsomes were incubated with PBS (no drug treatment). Microsomal mixture was then incubated with 1 mM AAPH for 1 hour to initiate free radical induced lipid peroxidation for 1 hour at 37° C. Following incubation, the microsomal mixture was centrifuged at 2000 rpm using 5000 MWCO ultracentrifuge tubes and the procedure repeated twice with PBS to remove any AAPH and drug. Lipid peroxidized microsomes were incubated with 10 μM DCFH for 15 minutes and fluorescence activity recorded using a fluorescence plate reader.

[1] = tested on: piglet hepatic microsomal membranes; test: DCF activity in AAPH induced free radical release in microsomes (lipid peroxidation); format: biochemical; design: DCF activity in AAPH induced free radical release: unit not given here; settings: for inhibition of membrane oxidation (reduction in DCF activity): 0-1000 μM, AAPH; for DCF activity in AAPH induced free radical release: one hour at 37° C. then one hour AAPH
Experimental: The protective effect of diltiazem on cell membranes was examined in piglet hepatic microsomal membranes obtained from the livers of 3-week-old female piglets. […] Following incubation the microsomal mixture was centrifuged at 2000 rpm to remove excess AAPH and diltiazem. The extent of reactive oxygen species mediated lipid peroxidation in the microsomal membranes was then measured employing the fluorescence market dichlorofluoresen (DCF, 10μ for 15 min). Image analysis.

[2] = tested on: microvascular blood flow within the liver; settings: in vivo; cited from earlier work
[3] = tested on: piglet hepatic microsomal membranes; test: Parallel studies using H2O2 as a free radical generator; format: biochemical
[4] = tested on: patients with Hepatitis B; settings: cited from earlier work

SMILES	Fluorescence Activity (Hepatic liver microsomes; Diltiazem 50 μM)	Fluorescence Activity (Hepatic liver microsomes; Diltiazem 500 μM)	inhibition of membrane oxidation (reduction in DCF activity) [1]	DCF activity in AAPH induced free radical release ([1]; 5 μM)	DCF activity in AAPH induced free radical release ([1]; 50 μM)	DCF activity in AAPH induced free radical release ([1]; 250 μM)	DCF activity in AAPH induced free radical release ([1]; 500 μM)	DCF activity in AAPH induced free radical release ([1]; 1000 μM)	effect on microvascular blood flow within the liver [2]	protection against H2O2 as free radical generator [3]	Fluorescence Activity (Hepatic liver microsomes; Thiamine 10 μM)	Fluorescence Activity (Hepatic liver microsomes; Thiamine 50 μM)	Fluorescence Activity (Hepatic liver microsomes; Thiamine 100 μM)	effect on fluorescence activity (free radical release), in words (Hepatic liver microsomes; thiamine added to microsomes)	effect on liver function [4]
COc1ccc([C@@H]2Sc3ccccc3N(CCN(C)C)C(=O)[C@@H]2OC(C)=O)cc1 (relative stereo) [Diltiazem, cis-(+)-3-(acetyloxy)-5-[2-(dimethylamino)ethyl]-2,3-dihydro-2-(4-methoxyphenyl)-1,5-benzothiazepin-4(5H)-one]	36492	32271	dose-dependent inhibition of membrane oxidation	44501	38293	35148	31498	27258	no effect	not protective					
COc1ccc([C@H]2Sc3ccccc3N(CCN(C)C)C(=O)[C@H]2OC(C)=O)cc1 [L-diltiazem]			not	52799	49949	51120	53182	49937							
Cc1ncc(C[n+]2csc(CCO)c2C)c(N)n1 [Thiamine, thiamine]											31113	27265	23477	reduced the fluorescence activity	improve liver function
